Assay [1] relates to Leptosphaeria nodorum—LEPTNO. The assay can be described thus: Glume Blotch of Wheat, in vivo whole plant, 24 Hour Protectant. The settings on record: Leptosphaeria, 24 h, inoculated after 24 hours, read-out: LEPTNO in vivo 1 Day Protectant.
The subject of assay [2] is Rhizoctonia solani (RHIZSO). The assay can be described thus: microbe, parasite or virus in culture. The class given is cell-based.
Assay [3] concerns Ustilago maydis (USTIMA). The assay can be described thus: microbe, parasite or virus in culture. The class given is cell-based.
[4] abbreviates: wheat (cultivar Yuma), sprayed at 100 ppm, control of fungal infection vs untreated plants.
Where [5] appears, read: wheat plants sprayed at 100 ppm, control vs untreated plants.

Like-named read-outs stand apart in the source and are kept apart here.

Consider `COc1ccnc(C(=O)N[C@H]2COC(=O)[C@H](Cc3ccccc3)[C@@H](OC(=O)OC(C)C)[C@H](C)OC2=O)c1O` [Compound 401], for which, in assay [1] (setting [4]), the pest or weed control at 100 ppm lay within 75 to 100%.

For `CC(C)C(=O)O[C@H]1[C@H](C)OC(=O)[C@@H](NC(=O)c2nscc2O)COC(=O)[C@@H]1Cc1ccccc1` [Compound 550], the pest or weed control at 100 ppm in assay [1] (setting [5]) lay within 75 to 100%. Turning to `COc1ccnc(C(=O)N[C@H]2COC(=O)[C@H](Cc3ccccc3)[C@@H](OC(=O)NC(C)(C)C)[C@H](C)OC2=O)c1O` [Compound 400], the pest or weed control at 100 ppm in assay [1] (setting [4]) was 75 to 100%. In the case of `COc1ccnc(C(=O)Nc2ccc(OC3CC(C)(C)CC(C)(C)C3)cc2)c1O` [Compound 458], in assay [1] (setting [5]), the pest or weed control at 100 ppm was 75 to 100%. Turning to `CC(C)C(=O)O[C@H]1[C@H](C)OC(=O)[C@@H](NC(=O)c2nccnc2O)COC(=O)[C@@H]1Cc1ccccc1` [Compound 534], the pest or weed control at 100 ppm in assay [1] (setting [5]) was in the range of 75 to 100%.

As to `COc1ccnc(C(=O)N[C@H]2COC(=O)[C@H](Cc3ccccc3)[C@@H](OC(C)=O)[C@H](C)OC2=O)c1O` [Compound 385], the pest or weed control at 100 ppm in assay [1] (setting [4]) lay in the range of 75 to 100%. For the molecule `COc1ccnc(C(=O)Nc2ccc(Oc3ccc(C)cc3)cc2)c1O` [Compound 417], the pest or weed control at 100 ppm in assay [1] (setting [4]) lay within 75 to 100%.

With `COc1ccnc(C(=O)Nc2ccc(OCc3ccc(C(F)(F)F)cc3)cc2)c1O` [Compound 448], in assay [1] (setting [4]), the pest or weed control at 100 ppm lay in the range of 75 to 100%.

On to `COc1ccnc(C(=O)NC2CC(C)(C)CC3(C2)CC3(F)F)c1O` (stereo not drawn) [Compound 255], for which the “RHIZSO in vitro Growth Inhibition” value in assay [2] is listed as “− (key: +: at least 80% growth inhibition; −: less than 80% growth inhibition)”. Moreover, in assay [3], the “USTIMA in vitro Growth Inhibition” value is reported as “− (key: +: at least 80% growth inhibition; −: less than 80% growth inhibition)”. Also, the pest or weed control at 100 ppm in assay [1] (setting [4]) lay in the range of 75 to 100%. As for `COc1ccnc(C(=O)N[C@H]2CC[C@H]3C4CCC(CC4)[C@H]3C2=O)c1O` [Compound 292], the “RHIZSO in vitro Growth Inhibition” value in assay [2] is “− (key: +: at least 80% growth inhibition; −: less than 80% growth inhibition)”. Also, the “USTIMA in vitro Growth Inhibition” value in assay [3] was “− (key: +: at least 80% growth inhibition; −: less than 80% growth inhibition)”. In addition, in assay [1] (setting [4]), the pest or weed control at 100 ppm fell in the range of 75 to 100%. With `COc1ccnc(C(=O)NC2CSCC(c3ccccc3)C2)c1O` (stereo not drawn) [Compound 324], the “RHIZSO in vitro Growth Inhibition” value in assay [2] is given as “+ (key: +: at least 80% growth inhibition; −: less than 80% growth inhibition)”. In addition, in assay [3], the “USTIMA in vitro Growth Inhibition” value is listed as “+ (key: +: at least 80% growth inhibition; −: less than 80% growth inhibition)”. In addition, the pest or weed control at 100 ppm in assay [1] (setting [4]) was in the range of 75 to 100%. Regarding `Cc1ccc(C(=O)N[C@H]2COC(=O)[C@H](Cc3ccccc3)[C@@H](OC(=O)C(C)C)[C@H](C)OC2=O)c(O)n1` [Compound 525], the pest or weed control at 100 ppm in assay [1] (setting [5]) fell in the range of 75 to 100%. In the case of `COc1ccnc(C(=O)N[C@H]2COC(=O)[C@H](Cc3ccccc3)[C@@H](OC(=O)c3ccccc3)[C@H](C)OC2=O)c1O` [Compound 394], the pest or weed control at 100 ppm in assay [1] (setting [4]) lay within 75 to 100%. The same measure, in the same setting: in the case of `COc1ccnc(C(=O)Nc2cccc(Oc3ccc(Cl)cc3)c2)c1O` [Compound 440] it was 75 to 100%; in that of `COc1ccnc(C(=O)N[C@H]2COC(=O)[C@H](Oc3ccccc3)[C@@H](OC(=O)C(C)C)[C@H](C)OC2=O)c1O` [Compound 403], 75 to 100%. In the case of `COc1ccnc(C(=O)N[C@H]2COC(=O)[C@H](Cc3ccccc3)[C@@H](OC(=O)C3CC3)[C@H](C)OC2=O)c1O` [Compound 387], the pest or weed control at 100 ppm in assay [1] (setting [4]) is 75 to 100%. Same read-out and setting: in the case of `COc1ccnc(C(=O)Nc2ccc(Sc3cccc(C(F)(F)F)c3)cc2)c1O` [Compound 445] it was 75 to 100%. As for `Cc1nc(O)c(C(=O)N[C@H]2COC(=O)[C@H](Cc3ccccc3)[C@@H](OC(=O)C(C)C)[C@H](C)OC2=O)nc1C` [Compound 536], in assay [1] (setting [5]), the pest or weed control at 100 ppm lay in the range of 75 to 100%.

Take `CO/N=C(/c1ccc(NC(=O)c2nccc(OC)c2O)cc1)c1ccc(C(F)(F)F)cc1` [Compound 409]: in assay [1] (setting [4]), the pest or weed control at 100 ppm was 75 to 100%. Same read-out and setting: in the case of `COc1ccnc(C(=O)N[C@H]2COC(=O)[C@H](Cc3ccccc3)[C@@H](OC(=O)C3CCCC3)[C@H](C)OC2=O)c1O` [Compound 391] it was 75 to 100%. In the case of `COc1nc(O)c(C(=O)N[C@H]2COC(=O)[C@H](Cc3ccccc3)[C@@H](OC(=O)C(C)C)[C@H](C)OC2=O)nc1Cl` [Compound 537], the pest or weed control at 100 ppm in assay [1] (setting [5]) lay within 75 to 100%. On the same count and under the same terms, the same measure for `O=C(Nc1ccc(Oc2ccccc2)cc1)c1cccnc1O` [Compound 522]: 75 to 100%. Consider `COc1ccnc(C(=O)Nc2ccc(OC3CC(C)(C)OC(C)(C)C3)cc2)c1O` [Compound 459], for which the pest or weed control at 100 ppm in assay [1] (setting [5]) lay in the range of 75 to 100%. Turning to `COc1ccnc(C(=O)NC(C(=O)OCC(C)C)C(C)OC(=O)C(C)Cc2ccccc2)c1O` (stereo not drawn) [Compound 360], the pest or weed control at 100 ppm in assay [1] (setting [4]) fell in the range of 75 to 100%.

In the case of `C=C(C)C(=O)O[C@H]1[C@H](C)OC(=O)[C@@H](NC(=O)c2nccc(OC)c2O)COC(=O)[C@@H]1Cc1ccccc1` [Compound 386], the pest or weed control at 100 ppm in assay [1] (setting [4]) was in the range of 75 to 100%. Consider `O=C(NCc1ccccc1Cl)c1ncccc1O` [Compound 218], for which the “RHIZSO in vitro Growth Inhibition” value in assay [2] is reported as “+ (key: +: at least 80% growth inhibition; −: less than 80% growth inhibition)”. Also, the “USTIMA in vitro Growth Inhibition” value in assay [3] is on record as “+ (key: +: at least 80% growth inhibition; −: less than 80% growth inhibition)”. For `COc1ccnc(C(=O)NC2COC(C)C2)c1O` (stereo not drawn) [Compound 310], the “RHIZSO in vitro Growth Inhibition” value in assay [2] was “− (key: +: at least 80% growth inhibition; −: less than 80% growth inhibition)”. Further, in assay [3], the “USTIMA in vitro Growth Inhibition” value is on record as “− (key: +: at least 80% growth inhibition; −: less than 80% growth inhibition)”. Turning to `COc1ccnc(C(=O)NC2CCCC2=O)c1O` (stereo not drawn) [Compound 249], the “RHIZSO in vitro Growth Inhibition” value in assay [2] is given as “− (key: +: at least 80% growth inhibition; −: less than 80% growth inhibition)”. For the same molecule, the “USTIMA in vitro Growth Inhibition” value in assay [3] is “− (key: +: at least 80% growth inhibition; −: less than 80% growth inhibition)”. For `COc1ccnc(C(=O)NCC2C(C=C(C)C)C2(C)C)c1O` (stereo not drawn) [Compound 241], the “RHIZSO in vitro Growth Inhibition” value in assay [2] is “+ (key: +: at least 80% growth inhibition; −: less than 80% growth inhibition)”. For the same molecule, the “USTIMA in vitro Growth Inhibition” value in assay [3] was “− (key: +: at least 80% growth inhibition; −: less than 80% growth inhibition)”. Consider `COc1ccnc(C(=O)N[C@H]2C(O)[C@@H]3CC[C@H]2[C@@H]2CCCC[C@@H]23)c1O` (stereo partly drawn) [Compound 293], for which the “RHIZSO in vitro Growth Inhibition” value in assay [2] is “− (key: +: at least 80% growth inhibition; −: less than 80% growth inhibition)”. Further, the “USTIMA in vitro Growth Inhibition” value in assay [3] was “− (key: +: at least 80% growth inhibition; −: less than 80% growth inhibition)”.

Regarding `COc1ccnc(C(=O)NC2CCCCCCC2)c1O` [Compound 282], the “RHIZSO in vitro Growth Inhibition” value in assay [2] is given as “− (key: +: at least 80% growth inhibition; −: less than 80% growth inhibition)”. For the same molecule, the “USTIMA in vitro Growth Inhibition” value in assay [3] is recorded as “− (key: +: at least 80% growth inhibition; −: less than 80% growth inhibition)”.

As for `COc1ccnc(C(=O)N[C@H]2COC(=O)[C@H](Cc3ccccc3)[C@@H](OC(=O)C3CCCCC3)[C@H](C)OC2=O)c1O` [Compound 392], the pest or weed control at 100 ppm in assay [1] (setting [4]) lay in the range of 75 to 100%. Regarding `COc1ccnc(C(=O)N[C@@H]2CC3CC2[C@H]2COC[C@@H]32)c1O` (stereo partly drawn) [Compound 302], in assay [2], the “RHIZSO in vitro Growth Inhibition” value is “− (key: +: at least 80% growth inhibition; −: less than 80% growth inhibition)”. Further, the “USTIMA in vitro Growth Inhibition” value in assay [3] is recorded as “− (key: +: at least 80% growth inhibition; −: less than 80% growth inhibition)”. On to `COc1ccnc(C(=O)NC2C[C@H](C)C[C@H](c3ccccn3)C2)c1O` (stereo partly drawn) [Compound 259], for which the “RHIZSO in vitro Growth Inhibition” value in assay [2] is “− (key: +: at least 80% growth inhibition; −: less than 80% growth inhibition)”. Further, the “USTIMA in vitro Growth Inhibition” value in assay [3] is reported as “− (key: +: at least 80% growth inhibition; −: less than 80% growth inhibition)”. Consider `COc1ccnc(C(=O)N[C@H]2COC(=O)[C@H](Cc3ccccc3)C[C@H](C)OC2=O)c1O` [Compound 382], for which, in assay [1] (setting [4]), the pest or weed control at 100 ppm lay in the range of 75 to 100%. On the same count and under the same terms, in the case of `COc1ccnc(C(=O)N[C@H]2COC(=O)[C@H](Cc3ccccc3)[C@@H](OC(=O)NC(C)C)[C@H](C)OC2=O)c1O` [Compound 399] it was 75 to 100%. Take `COc1ccnc(C(=O)NC2CC(C)(C)C=CC(C)C2C)c1O` (stereo not drawn) [Compound 279]: the “RHIZSO in vitro Growth Inhibition” value in assay [2] is “− (key: +: at least 80% growth inhibition; −: less than 80% growth inhibition)”. Moreover, in assay [3], the “USTIMA in vitro Growth Inhibition” value is given as “− (key: +: at least 80% growth inhibition; −: less than 80% growth inhibition)”. For `COc1ccnc(C(=O)N[C@H]2COC(=O)[C@H](Cc3ccccc3)[C@@H](OC(=O)C(C)(C)C)[C@H](C)OC2=O)c1O` [Compound 388], the pest or weed control at 100 ppm in assay [1] (setting [4]) fell in the range of 75 to 100%.

For the molecule `COc1ccnc(C(=O)NC2CC(C)(C)CC(C)(C3CC3)C2)c1O` (stereo not drawn) [Compound 252], in assay [2], the “RHIZSO in vitro Growth Inhibition” value was “+ (key: +: at least 80% growth inhibition; −: less than 80% growth inhibition)”. In addition, in assay [3], the “USTIMA in vitro Growth Inhibition” value is on record as “− (key: +: at least 80% growth inhibition; −: less than 80% growth inhibition)”.

Consider `COc1ccnc(C(=O)N[C@@H](CO)C(=O)O[C@@H](C)[C@H](OC(=O)C(C)C)[C@@H](Cc2ccccc2)C(=O)O)c1O` [Compound 341], for which the “RHIZSO in vitro Growth Inhibition” value in assay [2] is “− (key: +: at least 80% growth inhibition; −: less than 80% growth inhibition)”. Also, the “USTIMA in vitro Growth Inhibition” value in assay [3] is listed as “− (key: +: at least 80% growth inhibition; −: less than 80% growth inhibition)”. As to `COc1ccnc(C(=O)NC2CC(C)(C)CC(C)(C(=O)c3ccccc3)C2)c1O` (stereo not drawn) [Compound 260], the “RHIZSO in vitro Growth Inhibition” value in assay [2] was “− (key: +: at least 80% growth inhibition; −: less than 80% growth inhibition)”. In assay [3], the “USTIMA in vitro Growth Inhibition” value is “− (key: +: at least 80% growth inhibition; −: less than 80% growth inhibition)”. As to `CC(C)C(=O)O[C@H]1[C@H](C)OC(=O)[C@@H](NC(=O)c2ccncc2O)COC(=O)[C@@H]1Cc1ccccc1` [Compound 513], in assay [1] (setting [5]), the pest or weed control at 100 ppm lay within 75 to 100%.

(Values after patent US7034035B2, “Fungicidal mono-, bi-, and tri-cycloheteroalkyl amides and their compositions, methods of use and preparation” (priority 1999, dated 2006).)
